The supplement of paper PMC13380429

What was measured:
Conditions in all cases: 72 h
Caco-2 [1] = assay: drug sensitivity score (DSS) for viability; higher = more toxic; extreme values may be limits of the assay
U2OS [2] = assay: as above
Calu-3 [3] = assay: as above
Vero E6 [4] = assay: as above
HepG2 [5] = assay: as above
Caco-2 [6] = assay: relative viability EC50 (midpoint between 100% and the lowest measured viability); higher = less toxic
U2OS [7] = assay: as above
Calu-3 [8] = assay: as above
Vero E6 [9] = assay: as above
HepG2 [10] = assay: as above
Caco-2 [11] = assay: cell viability relative to DMSO; higher = less toxic
U2OS [12] = assay: as above
Calu-3 [13] = assay: as above
Vero E6 [14] = assay: as above
HepG2 [15] = assay: as above

Row | SMILES | drug sensitivity score (Caco-2 [1]) | drug sensitivity score (U2OS [2]) | drug sensitivity score (Calu-3 [3]) | drug sensitivity score (Vero E6 [4]) | drug sensitivity score (HepG2 [5]) | relative viability EC50 (Caco-2 [6]) [µM] | relative viability EC50 (U2OS [7]) [µM] | relative viability EC50 (Calu-3 [8]) [µM] | relative viability EC50 (Vero E6 [9]) [µM] | relative viability EC50 (HepG2 [10]) [µM] | cell viability (Caco-2 [11]; 1 nM) [%] | cell viability (Caco-2 [11]; 10 nM) [%] | cell viability (Caco-2 [11]; 100 nM) [%] | cell viability (Caco-2 [11]; 1000 nM) [%] | cell viability (Caco-2 [11]; 10000 nM) [%] | cell viability (U2OS [12]; 1 nM) [%] | cell viability (U2OS [12]; 10 nM) [%] | cell viability (U2OS [12]; 100 nM) [%] | cell viability (U2OS [12]; 1000 nM) [%] | cell viability (U2OS [12]; 10000 nM) [%] | cell viability (Calu-3 [13]; 1 nM) [%] | cell viability (Calu-3 [13]; 10 nM) [%] | cell viability (Calu-3 [13]; 100 nM) [%] | cell viability (Calu-3 [13]; 1000 nM) [%] | cell viability (Calu-3 [13]; 10000 nM) [%] | cell viability (Vero E6 [14]; 1 nM) [%] | cell viability (Vero E6 [14]; 10 nM) [%] | cell viability (Vero E6 [14]; 100 nM) [%] | cell viability (Vero E6 [14]; 1000 nM) [%] | cell viability (Vero E6 [14]; 10000 nM) [%] | cell viability (HepG2 [15]; 1 nM) [%] | cell viability (HepG2 [15]; 10 nM) [%] | cell viability (HepG2 [15]; 100 nM) [%] | cell viability (HepG2 [15]; 1000 nM) [%] | cell viability (HepG2 [15]; 10000 nM) [%]
1 | Nc1ncnc2c1C(=O)N(c1ccc([C@H]3CC[C@H](CC(=O)O)CC3)cc1)CCO2 | 0 | 0 | 0 | 0 | 0 | > 10 | > 10 | > 10 | > 10 | > 10 | 100 | 90.6 | 95.3 | 98.1 | 104 | 104 | 99.6 | 109 | 102 | 97.5 | 107 | 99.7 | 109 | 105 | 110 | 98 | 103 | 93.7 | 107 | 107 | 91.2 | 101 | 95.3 | 117 | 92.3
2 | Nc1ncnc2c1ncn2C1CCCO1 (stereo not given) | 0 | 0 | 0 | 0 | 0 | > 10 | > 10 | > 10 | > 10 | > 10 | 104 | 107 | 99.7 | 90.2 | 91.7 | 97.4 | 98.9 | 94.8 | 99.4 | 98.9 | 106 | 102 | 94.1 | 102 | 102 | 95.6 | 102 | 101 | 98.8 | 100 | 98.7 | 94.8 | 103 | 93.9 | 103
3 | CC=CC1=C(C(=O)O)N2C(=O)[C@@H](NC(=O)[C@H](N)c3ccc(O)cc3)[C@H]2SC1 (mixture of isomers) [cefprozil] | 0 | 0 | 0 | 0 | 0 | > 10 | > 10 | > 10 | > 10 | > 10 | 101 | 94.3 | 82.7 | 120 | 125 | 95.8 | 101 | 96.8 | 99.8 | 98.7 | 86.7 | 94.2 | 81 | 97.8 | 95.5 | 110 | 90.7 | 99.9 | 103 | 112 | 112 | 104 | 100 | 97.2 | 106
